Experimental data as given in the NIST ThermoML archive (doi:10.1021/je060390q).

Experiments:
[1] = xn = mol fraction of the nth substance listed; settings: Maximal bubble pressure
[2] = Maximal bubble pressure

CC(=O)O [acetic acid] + Cc1cccc(C)c1
[1], x1 = 1
Settings	surface tension liquid-gas [mN/m]
303.15 K	26.4
308.15 K	25.91
313.15 K	25.41
318.15 K	24.91
323.15 K	24.42
333.15 K	23.44
343.15 K	22.45

Cc1ccccc1C [1,2-dimethylbenzene] + CC(=O)O
surface tension liquid-gas [mN/m], [1]
Settings	x2 = 0	x2 = 0.1001	x2 = 0.2001	x2 = 0.3002	x2 = 0.4	x2 = 0.5	x2 = 0.6213	x2 = 0.7001	x2 = 0.8	x2 = 0.9
303.15 K	28.98	28.81	28.56	28.32	28.07	27.81	27.5	27.29	27.03	26.74
308.15 K	28.43	28.26	28.03	27.78	27.54	27.29	26.98	26.78	26.5	26.24
313.15 K	27.88	27.71	27.49	27.25	27.01	26.77	26.47	26.26	25.99	25.74
318.15 K	27.33	27.17	26.94	26.7	26.47	26.23	25.94	25.74	25.48	25.22
323.15 K	26.78	26.62	26.4	26.17	25.95	25.71	25.42	25.22	24.97	24.72
333.15 K	25.68	25.54	25.32	25.11	24.89	24.67	24.4	24.2	23.97	23.73
343.15 K	24.58	24.45	24.24	24.04	23.84	23.63	23.37	23.18	22.95	22.73

CC(=O)O [acetic acid] + Cc1ccccc1C
[1], x1 = 1
Settings	surface tension liquid-gas [mN/m]
303.15 K	26.4
308.15 K	25.91
313.15 K	25.41
318.15 K	24.91
323.15 K	24.42
333.15 K	23.44
343.15 K	22.45

Cc1cccc(C)c1 [1,3-dimethylbenzene]
[2]
Settings	surface tension liquid-gas [mN/m]
303.15 K	27.58
308.15 K	27.04
313.15 K	26.49
318.15 K	25.94
323.15 K	25.38
333.15 K	24.27
343.15 K	23.18

CC(=O)O [acetic acid]
[2]
Settings	surface tension liquid-gas [mN/m]
303.15 K	26.4
308.15 K	25.91
313.15 K	25.41
318.15 K	24.91
323.15 K	24.42
333.15 K	23.44
343.15 K	22.45

Cc1cccc(C)c1 [1,3-dimethylbenzene] + CC(=O)O
surface tension liquid-gas [mN/m], [1]
Settings	x2 = 0	x2 = 0.1001	x2 = 0.2001	x2 = 0.3	x2 = 0.4188	x2 = 0.4999	x2 = 0.5999	x2 = 0.7018	x2 = 0.7999	x2 = 0.9
303.15 K	27.58	27.51	27.4	27.3	27.17	27.07	26.95	26.87	26.71	26.56
308.15 K	27.04	26.97	26.87	26.77	26.63	26.55	26.47	26.36	26.19	26.06
313.15 K	26.49	26.42	26.33	26.24	26.1	26.03	25.95	25.84	25.68	25.56
318.15 K	25.94	25.88	25.78	25.69	25.58	25.5	25.42	25.32	25.17	25.04
323.15 K	25.38	25.32	25.24	25.15	25.04	24.98	24.9	24.76	24.65	24.55
333.15 K	24.27	24.23	24.16	24.08	23.98	23.92	23.85	23.74	23.65	23.55
343.15 K	23.18	23.15	23.08	23.02	22.93	22.88	22.82	22.72	22.63	22.55

Cc1ccccc1C [1,2-dimethylbenzene]
[2]
Settings	surface tension liquid-gas [mN/m]
303.15 K	28.98
308.15 K	28.43
313.15 K	27.88
318.15 K	27.33
323.15 K	26.78
333.15 K	25.68
343.15 K	24.58
